± gives the standard deviation of the averaged measurements.
Assays:
Test in all cases: level (log10 ratio to DMSO vehicle control); higher = higher biomarker level / cell amount than vehicle control
Settings in all cases: in DMSO
[1] = compound: OCC(F)(F)C(F)(F)C(F)(F)C(F)(F)C(F)(F)C(F)F [1H,1H,7H-Dodecafluoro-1-heptanol]
Experimental: (§1)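 BioMAP Diversity Plus panel of 12 human primary cell co-culture systems (3C, 4H, LPS, SAg, BT, BF4T, BE3C, CASM3C, HDF3CGF, KF3CT, MyoF, Mphg). Compounds were added 1 h before stimulation and left for 24 h (MyoF 48 h; BT 72 h for soluble read-outs or 6 d for IgG). Biomarkers were read by ELISA, cytotoxicity by SRB, PBMC viability and proliferation by Alamar Blue. Each well value was divided by the mean of 8 DMSO control wells on the same plate and log10 transformed; duplicate blinded samples were tested at 4 concentrations.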

[2] = compound: O=C(O)CCC(F)(F)C(F)(F)C(F)(F)F [3:3 Fluorotelomer carboxylic acid]
Experimental: as §1

[3] = compound: FC(F)(F)C(F)(F)C(F)(F)C(F)(F)C(F)(F)C(F)(F)C(F)(F)CCI [1-Iodo-1H,1H,2H,2H-perfluorononane]
Experimental: as §1

Test System	level (log10) ([1]; 6700 nM)	level (log10) ([1]; 20000 nM)	level (log10) ([1]; 60000 nM)	level (log10) ([2]; 6700 nM)	level (log10) ([2]; 20000 nM)	level (log10) ([2]; 60000 nM)	level (log10) ([3]; 6700 nM)	level (log10) ([3]; 20000 nM)
KF3CT:uPA	0.001 ± 0.011	-0.0155 ± 0.013	0.0035 ± 0.015	-0.01 ± 0.017	-0.0165 ± 0.0092	-0.009 ± 0.0014	0.0025 ± 0.018	0.006 ± 0.016
3C:CD62E/E-Selectin	-0.0135 ± 0.025	-0.007 ± 0.0042	0.0205 ± 0.025	-0.006 ± 0.0042	0.001 ± 0.013	0.006 ± 0.0071	-0.0135 ± 0.0035	-0.028 ± 0.014
MyoF:SRB	0.001 ± 0.0085	-0.0025 ± 0.00071	-0.007 ± 0.0085	0.0005 ± 0.0021	0 ± 0.0028	-0.0065 ± 0.012	0.016 ± 0.0014	0.0325 ± 0.0021
KF3CT:IL-1alpha	-0.016 ± 0.025	-0.0195 ± 0.032	-0.0115 ± 0.043	-0.0065 ± 0.059	0.0035 ± 0.023	0.0135 ± 0.019	-0.01 ± 0.0071	0.019 ± 0.047
HDF3CGF:CXCL10/IP-10	-0.0015 ± 0.015	-0.0055 ± 0.0021	-0.011 ± 0.018	-0.0005 ± 0.013	0.003 ± 0.0042	-0.011 ± 0.011	-0.0265 ± 0.0035	-0.0645 ± 0.03
MyoF:alpha-SM Actin	-0.012 ± 0.0014	0.0015 ± 0.005	-0.0115 ± 0.011	-0.011 ± 0.045	0.002 ± 0.023	-0.0055 ± 0.013	-0.016 ± 0.02	-0.0435 ± 0.0035
lMphg:CD40	-0.047 ± 0.082	-0.0425 ± 0.047	-0.061 ± 0.071	-0.0195 ± 0.064	-0.028 ± 0.067	0.0065 ± 0.018	-0.0065 ± 0.00071	-0.0225 ± 0.028
KF3CT:SRB	-0.0025 ± 0.0064	-0.001 ± 0.0042	0.002 ± 0.0085	-0.0085 ± 0.00071	-0.004 ± 0.0042	0.0015 ± 0.018	0.0005 ± 0.005	0.005 ± 0.013
KF3CT:MMP-9	0.0075 ± 0.005	-0.003 ± 0.011	0.011 ± 0.0014	0.001 ± 0.0028	-0.001 ± 0.0042	0.003 ± 0.0042	-0.006 ± 0.0042	0.0165 ± 0.013
lMphg:CD62E/E-Selectin	-0.0295 ± 0.025	-0.0265 ± 0.0035	0.001 ± 0.048	0.014 ± 0.025	0.028 ± 0.023	0.0435 ± 0.023	0.016 ± 0.02	0.001 ± 0.0099
MyoF:TIMP-1	-0.013 ± 0.018	-0.0025 ± 0.023	-0.0065 ± 0.046	-0.053 ± 0.067	-0.033 ± 0.059	-0.0275 ± 0.074	-0.002 ± 0.054	0.0165 ± 0.042
HDF3CGF:M-CSF	-0.0025 ± 0.018	-0.0055 ± 0.00071	-0.0045 ± 0.0035	0.002 ± 0.0099	-0.004 ± 0.0042	0.001 ± 0.013	-0.0895 ± 0.049	-0.12 ± 0.064
3C:CCL2/MCP-1	0.0225 ± 0.021	0.0145 ± 0.023	0.0325 ± 0.012	-0.011 ± 0.013	-0.0025 ± 0.005	0.022 ± 0.037	-0.005	0.019 ± 0.011
HDF3CGF:CD54/ICAM-1	0.006 ± 0.0085	0.0015 ± 0.012	-0.003 ± 0.0099	-0.0025 ± 0.0078	-0.0135 ± 0.015	-0.017 ± 0.0028	-0.0105 ± 0.016	0.0095 ± 0.0035
KF3CT:TIMP-2	0.0015 ± 0.005	0.0015 ± 0.0021	0.0015 ± 0.0064	-0.002 ± 0.021	-0.006 ± 0.0099	-0.0025 ± 0.016	0.0145 ± 0.03	-0.0035 ± 0.0064
MyoF:bFGF	0.0085 ± 0.0064	0.0065 ± 0.015	0.0065 ± 0.013	0.0025 ± 0.0021	0.0025 ± 0.0092	0.0085 ± 0.0092	0.01 ± 0.0014	0.021 ± 0.017
CASM3C:HLA-DR	-0.0045 ± 0.03	0.0075 ± 0.0064	0.0045 ± 0.0021	0.007 ± 0.0085	0.006 ± 0.023	-0.009 ± 0.028	0.0055 ± 0.0064	-0.007 ± 0.0071
BE3C:SRB	0.001 ± 0.0071	-0.009 ± 0.011	0.0025 ± 0.00071	-0.0065 ± 0.0064	-0.0065 ± 0.005	0.001 ± 0.013	-0.0035 ± 0.0021	0.0005 ± 0.00071

Reference: the supplement of paper PMC10331698
